Laboratory results: patent publication US8394848B2, “Compounds that modulate intracellular calcium” (Calcimedica, Inc., priority 2008, dated 2013)

Legend:
[1] = molecular target: STIM1 and Orai1 in HEK293 cells (Homo sapiens, UniProt Q96D31); details: STIM1 and Orai1 co-expression; cited from earlier work
[2] = tested on: RBL-2H3 cells; assay: Fluorescence-based assay of store-operated calcium entry in RBL-2H3 cells; format: cell-based; details: Rattus norvegicus, 50% inhibition of Upslope, thapsigargin
Description: B. Fluorescence-Based Assay of Store-Operated Calcium Entry in RBL-2H3Cells.
RBL-2H3 cells were obtained from ATCC and maintained in complete medium with 10% FBS at 37° C./6% CO2.
The day prior to performing the assay, RBL-2H3 cells are plated in 50 μL of complete medium in a 384 well plate. Cells are grown at 37° C./6% CO2 overnight and grow to 50-60% confluence by the next day. On the assay day, 1.5 μM Fluo-4-AM dye (Invitrogen) in complete medium is added and incubated for 1 hour at RT. Cells are washed twice in Ca^2+-free HBSS buffer and 35 μL Ca^2+-free HBSS buffer is added to each well. 10 μL of a test compound prepared in a Ca^2+-free HBSS solution at 4.5× of the desired concentration is added to a well and incubated for 5 minutes at RT. 10 μL of thapsigargin prepared in a Ca^2+-free HBSS solution at 5.5× of the desired concentration (5.5 uM) is added to each well and incubated for an additional 25 minutes. The initial baseline fluorescence signal is measured with a FLIPR^384 (Molecular Devices) plate reader. 5 μL of 12× calcium in HBSS (12 mM) is added and changes in cellular fluorescence are measured with the FLIPR^384 plate reader. In each well, the change in the fluorescent signal as a function of time due to calcium entry into the cell is determined by calculating the difference between the fluorescent signal measured 7 seconds after calcium addition and the initial baseline fluorescence signal at time zero (t=0). This parameter is designated Upslope. The IC50 value is calculated as the concentration at which 50% of the Upslope is inhibited.

[3] = molecular target: T1, recombinant human STIM1 and Orai1 (HEK-293 stable cells; JR251) (Homo sapiens, UniProt Q96D31); assay: Fluorescence-based assay of store-operated calcium entry in Orai1/STIM1 stable cells; format: cell-based; details: 50% inhibition of Peak-Basal signal
T1 construct: c-myc (C); expressed in transfected cells
Description: A. Fluorescence-Based Assay of Store-Operated Calcium Entry in Orai1/STIM1 Stable Cells.
Cells stably expressing recombinant human STIM1 and Orai1 were generated by transfecting a human Orai1 expression plasmid (pcDNA3.1-Orai1-cmyc) into HEK-293 cells stably overexpressing human STIM1 (Roos et al. 2005 JCB 169(3): 435-445). Colonies of cells stably expressing both STIM1 and Orai1 proteins were selected and then subcloned by limiting dilution. Cells were cultured at 37° C./6% CO2 in complete medium with 10% FBS and appropriate selection markers.
The day prior to performing the assay Orai1/STIM1 stable cells were plated in 50 μL of complete medium at 90-95% confluence in a 384 well plate. Cells were grown at 37° C./6% CO2 overnight. On the day of the assay, 1.5 μM fluo-4-AM (Invitrogen) in complete medium was added to the cells, which were then incubated for 1 hour at RT. Cells were washed once in Ca^2+-free HBSS (Hank's buffered saline solution) and 35 μl of Ca^2+-free HBSS was added to each well. Test compounds were added to wells in a 10 μL Ca^2+-free HBSS solution, prepared at 4.5× the desired final concentration, and incubated for 30 minutes at RT. The initial baseline fluorescence signal was then measured with a FLIPR^384 (Molecular Devices) plate reader. Calcium entry was initiated by adding 5 μl of 10×CaCl2 (10 mM) in HBSS, and changes in cellular fluorescence were measured with the FLIPR^384 plate reader. In each well, the magnitude of the fluorescence signal as a result of calcium entry into the cell was determined by calculating the difference between the peak fluorescence signal measured after calcium addition and the initial baseline fluorescence signal (designated Peak-Basal). IC50 values were typically calculated as the concentration that inhibited 50% of the Peak-Basal signal (Table A).

[4] = tested on: Jurkat cells; details: cited from earlier work

T1 sequence (Q96D31 whole entry): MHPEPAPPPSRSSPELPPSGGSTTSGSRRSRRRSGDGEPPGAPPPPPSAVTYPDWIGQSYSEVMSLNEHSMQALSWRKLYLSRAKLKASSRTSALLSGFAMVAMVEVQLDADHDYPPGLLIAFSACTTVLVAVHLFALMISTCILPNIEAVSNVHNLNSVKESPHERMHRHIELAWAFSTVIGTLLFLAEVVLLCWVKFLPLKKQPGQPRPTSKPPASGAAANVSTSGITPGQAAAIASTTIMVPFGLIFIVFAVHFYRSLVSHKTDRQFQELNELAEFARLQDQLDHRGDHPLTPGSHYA
STIM1 and Orai1 in HEK293 cells, sequence (Q96D31 whole entry): as above

IC50 [2] [µM] | IC50 [3] [µM] | Structure (SMILES) | block of store-dependent Ca2+ entry [1] | inhibition of SOCE [4] | inhibition of proliferation [4]
– | – | NCCOB(c1ccccc1)c1ccccc1 [2-aminoethoxydiphenylborate] | completely blocked | – | –
≤ 0.5 | ≤ 0.5 | O=C(Nc1scc(-c2ccc(Cl)cc2)c1C(=O)O)c1cnc2ccccc2n1 [P] | – | – | –
1 to 10 | 1 to 10 | Cc1nnsc1C(=O)Nc1scc(-c2ccc(Br)cc2)c1C(=O)O [A] | – | – | –
– | – | Cc1nnsc1C(=O)Nc1ccc(-n2nc(C(F)(F)F)cc2C(F)(F)F)cc1 [BTP-2] | – | inhibits | inhibits
